Experimental data published in publication PMC12837263, “β,β-Dimethylacrylalkannin Restores Colistin Efficacy Against mcr- and TCS-Mediated Resistant Gram-Negative Bacteria via Membrane Disturbance” (Antibiotics, 2025).

Legend:
[1] = system: E. coli 13f4(mcr-1); assay: Checkerboard assay (MIC, FICI); type: cell-based; conditions: E. coli 13f4 (mcr-1); antibiotic + β,β-Dim
Protocol: (§1) The FICI of β,β-Dim–colistin combination was determined by a checkerboard assay. Briefly, two-fold serial dilutions of β,β-Dim and colistin were prepared in a 96-well plate. After incubation at 37 °C for 18 h with bacterial suspension (10^6 CFU/mL), OD600 values were measured. FICI = (MICβ,β-Dim in combination/MICβ,β-Dim) + (MICcolistin in combination/MICcolistin). The synergistic effect of β,β-Dim with other antibiotics was measured in the same way. Synergy was considered to be an FICI ≤ 0.5.

[2] = system: K. pneumoniae 667(phoP、pmrA、blaKPC); assay: Checkerboard assay (MIC, FICI); type: cell-based; conditions: K. pneumoniae 667 (phoP, pmrA); antibiotic + β,β-Dim
Protocol: as §1

[3] = design: method as in PMID 31882661; conditions: cited from earlier work

## CO[C@H]1/C=C/O[C@@]2(C)Oc3c(C)c(O)c4c(O)c(c(/C=N/N5CCN(C)CC5)c(O)c4c3C2=O)NC(=O)/C(C)=C\C=C\[C@H](C)[C@H](O)[C@@H](C)[C@@H](O)[C@@H](C)[C@H](OC(C)=O)[C@@H]1C [rifampicin]
[1]
  FICI of β,β-Dim combined with the antibiotic: > 1
[2]
  FICI of β,β-Dim combined with the antibiotic: > 1

## C[C@H]1c2cccc(O)c2C(=O)C2=C(O)[C@]3(O)C(=O)C(C(N)=O)=C(O)[C@@H](N(C)C)[C@@H]3[C@@H](O)[C@@H]21 [doxycycline]
[1]
  FICI of β,β-Dim combined with the antibiotic: > 1
[2]
  FICI of β,β-Dim combined with the antibiotic: > 1

## CC1(C)S[C@@H]2[C@H](NC(=O)[C@H](N)c3ccccc3)C(=O)N2[C@H]1C(=O)O [ampicillin]
[1]
  FICI of β,β-Dim combined with the antibiotic: > 1
[2]
  FICI of β,β-Dim combined with the antibiotic: > 1

## O=C(O)c1cn(C2CC2)c2cc(N3CCNCC3)c(F)cc2c1=O [ciprofloxacin]
[1]
  FICI of β,β-Dim combined with the antibiotic: > 1
[2]
  FICI of β,β-Dim combined with the antibiotic: > 1

## CS(=O)(=O)c1ccc([C@@H](O)[C@@H](CF)NC(=O)C(Cl)Cl)cc1 [florfenicol]
[1]
  FICI of β,β-Dim combined with the antibiotic: > 1
[2]
  FICI of β,β-Dim combined with the antibiotic: > 1

## CNC(C)C1CCC(N)C(OC2C(N)CC(N)C(OC3OCC(C)(O)C(NC)C3O)C2O)O1 (stereo not drawn) [gentamicin]
[1]
  FICI of β,β-Dim combined with the antibiotic: > 1
[2]
  FICI of β,β-Dim combined with the antibiotic: > 1

## N#CC(C#N)=NNc1cccc(Cl)c1 [CCCP, carbonyl cyanide 3-chloro phenyl hydrazone]
[3]
  reduction of colistin MIC by combination with CCCP: approximately 8 fold

## CC[C@H]1OC(=O)C[C@@H](O)[C@H](C)[C@@H](O[C@@H]2O[C@H](C)[C@@H](O[C@H]3C[C@@](C)(O)[C@@H](O)[C@H](C)O3)[C@H](N(C)C)[C@H]2O)[C@@H](CC=O)C[C@@H](C)C(=O)/C=C/C(C)=C/[C@@H]1CO[C@@H]1O[C@H](C)[C@@H](O)[C@@H](OC)[C@H]1OC [tylosin]
[1]
  FICI of β,β-Dim combined with the antibiotic: > 1
[2]
  FICI of β,β-Dim combined with the antibiotic: > 1
